Experimental data reported in patent publication US20080200412A1, “Astrocyte Elevated Gene-1 And Its Promoter In Treatments For Neurotoxicity And Malignancy” (priority 2005, published 2008).

Columns and labels:
AEG-1 promoter [1] = assay: AEG-1 promoter luciferase reporter in primary human fetal astrocytes; format: cell-based; settings: PHFA, 0.1 to 100 μM
Excerpt: (§1) Construction of plasmids: The full-length AEG-1 promoter DNA used in this analysis has a 3′ boundary 1 base-pair 5′ to the translation initiation site (ATG codon) of the AEG-1 gene (designated as nucleotide 1 in FIG. 7; SEQ ID NO:2) and extends 2759 bp upstream. The genomic DNA region corresponding to the AEG-1 promoter was isolated by PCR using the PCRx Enhancer System (Invitrogen, Carlsbad, Calif.) with forward primer: 5′-[…] -3′ (KpnI site underlined) (SEQ ID NO:4) and reverse primer: 5′-[…]-3′ (XhoI site underlined) 9SEQ ID NO:5). PCR conditions were as follows: Denaturation 95° C., 30 sec; annealing 55° C., 30 sec and extension 68° C., 3 min, repeated for 30 cycles. This region of genomic DNA was cloned into the luciferase reporter pGL-3 basic (Promega, Madison, Wis.) using restriction sites in KpnI and XhoI in the plasmid polylinker.
(§2) Other mediators of AEG-1 promoter activity. The HIV-Tat (Simm et al Virology 2002;294(1);1-12) and Nef (Lathi et al., Virology. 2003; 310(1):190-196) gene products were tested on the full length AEG-1 promoter at a plasmid expression vector concentration range of 50 to 800 ng/transfection point (FIG. 16). […] Thus, the AEG-1 promoter appears to be responsive to protein products produced by HIV infection of cells.

AEG-1 promoter [2] = assay: AEG-1 promoter luciferase reporter in C2 and C10 cell lines; format: cell-based, human
Excerpt: as §1
Cell treatment with inhibitors. The PI3 kinase inhibitor LY294002, MEK inhibitor PD 98059 and p38 MAP Kinase inhibitor SB 203580 were used to treat cells at the indicated concentration and to determine the effect of inhibition of the respective pathway on AEG-1 promoter activity using the AEG-1 luciferase reporter.
The colorectal cancer cell line HCT116 which is mutated in the k-RAS gene was also tested for AEG-1 promoter activity in addition to two related cell lines. […]

AEG-1 promoter [3] = assay: AEG-1 promoter luciferase reporter in CREF and CREF-ras fibroblasts; format: cell-based, rat
Excerpt: as §1
(§3) Transient transfection and luciferase assay. CREF, CREF-ras, FM516, FM516-ras, THV and THR cells were plated on 24-well plates one day prior to transfection. […] Luciferase activity was measured and normalized against β-galactosidase activity produced by a co-transfected vector as described (17). […]
(§4) Effect of inhibition of PI3 Kinase, MEK kinase and p38 MAP kinase on AEG-1 promoter activity. Signal transduction pathways impinging on or directly downstream of the RAS pathway were analyzed to determine their effect on AEG-1 promoter activity (FIGS. 13 A-E). […]

AEG-1 promoter [4] = assay: AEG-1 promoter luciferase reporter in THV/THR astrocytes; format: cell-based, human
Excerpt: as §1, §3, §4

EAAT2 promoter = settings: PHFA; cited from earlier work
AEG-1 [5] = settings: PHFA, by 7-days; cited from earlier work
AEG-1 promoter [6] = assay: AEG-1 promoter luciferase reporter co-transfected with HIV Tat or Nef expression constructs; format: cell-based, human; settings: plasmid expression vector 50 to 800 ng/transfection point
Excerpt: as §1, §2

[7] = test system: glutamate transporter (EAAT2); settings: astrocytes; cited from earlier work
U251-MG cells [8] = assay: Soft agar cloning efficiency; format: cell-based, human; settings: transient transfection vs control scrambled siRNA
Protocol: (§5) Soft agar colony formation and Matrigel invasion assay. FM-516SV cells (2×10^5 cells/6-cm plate) plated the previous day were transfected with either pcDNA3.1, pcDNA3.1 AEG-1, T24 Ha-ras (20 μg each), or AEG-1/T24 Ha-ras (10+10 μg). Two days later, transfected cells were harvested by trypsinization and re-plated in soft agar (0.4%) overlaying 0.8% base agar. Two weeks later, colonies over ˜50 cells in soft agar were identified microscopically and counted. Soft agar colony formation assay was also performed with FM-516SV AEG-1 stable transfectants established by transfection of pcDNA3.1 AEG-1 and T24 Ha-ras and G418 selection.
(§6) Effect of inhibition of AEG-1 on anchorage independent growth of malignant glioma cells. U87-MG and U251-MG cells were transiently transfected with siRNA for the AEG-1 gene and control scrambled siRNA using Lipofectamine. 24 hours after transfection 1×10^5 cells from the transfection mixture were replated to determine agar cloning efficiency. In parallel, cell extracts were prepared for western blot analysis.

U87-MG cells [9] = assay: Soft agar cloning efficiency; format: cell-based, human; settings: transient transfection vs control scrambled siRNA
Protocol: as §5, §6

AEG-1 [10] = assay: Western blot of AEG-1 protein after siRNA transfection; format: cell-based, human; settings: U87-MG and U251-MG cells transiently transfected, 24 hours
Protocol: Western blotting and immunofluorescence microscopy. Whole cell lysates were prepared and Western blotting was performed as described (17). Antibodies used in specific experiments are described in the text or in corresponding figure legends. For immunofluorescence microscopy, IM-PHFA, grown on chamber slides, were probed with anti-AEG-1 and anti-calreticulin primary antibodies and FITC-conjugated anti-chicken and rhodamine-conjugated anti-rabbit secondary antibodies, respectively. Alternatively, IM-PHFA were loaded with Mito-Tracker (Molecular probes) and then immunocytochemistry was performed using anti-AEG-1 antibody and rhodamine-conjugated anti-chicken secondary antibody. Cells were visualized using a Zeiss confocal laser scanning microscope (LSM510) and a 100× objective.
Construction of AEG-1 siRNA. The sequence (5′ AGCAGCCACCAGAGATTGA 3′) (SEQ ID NO:3) used for AEG-1 silencing corresponds to the 449-467 nucleotides of the AEG-1 ORF. The siRNA was constructed with Silencer™ siRNA kit according to manufacturer's protocol. A control scrambled siRNA was used to determine specificity of the inhibition and the sequence 5′ GGGTCGTCTA TAGGGATCGAT 3′(SEQ ID NO:10)
Effect of inhibition of AEG-1 on anchorage independent growth of malignant glioma cells. U87-MG and U251-MG cells were transiently transfected with siRNA for the AEG-1 gene and control scrambled siRNA using Lipofectamine. […]

U251-MG cells [11] = assay: Matrigel invasion assay (Transwell); format: cell-based, human; settings: 72 h, vs control scrambled siRNA
Protocol: (§7) Matrigel invasion assay. Cell were cultured, transfected and harvested essentially as described above for soft-agar colony formation assays. Cells were mixed with Matrigel and plated on […] pore-size tissue culture inserts. After 72 h or a pre-optimized time depending on the cell line, Matrigel was removed and the inserts were stained with Geimsa stain to enumerate the number of cells that had passed through the tissue culture insert membrane.
(§8) Effect of inhibition of AEG-1 on invasiveness of malignant glioma cells. U87-MG and U251-MG cells were transiently transfected with siRNA for AEG-1 and with control scrambled siRNA using Lipofectamine. 24 hours after transfection cells were seeded in the upper compartment of a Transwell™ unit (Becton Dickinson) and then incubated for 72 h at 37° C. The lower compartment contained 0.5 ml of DMEM and 5% FBS. At the end of the invasion assay, the filters were removed, fixed, and stained.

U87-MG cells [12] = assay: Matrigel invasion assay (Transwell); format: cell-based, human; settings: 72 h, vs control scrambled siRNA
Protocol: as §7, §8

With Nc1ncnc2c1nc(Br)n2[C@@H]1O[C@@H]2COP(=O)(O)O[C@H]2[C@H]1O [Bromo-cyclicAMP] the “AEG-1 promoter activity (luciferase)” value (AEG-1 promoter [1]) was “dose responsive stimulation”.
For COc1cccc(-c2cc(=O)c3ccccc3o2)c1N [PD 98059], the “AEG-1 promoter activity, responsiveness to inhibitor” value (AEG-1 promoter [2]) was “not responsive”, the “AEG-1 promoter activity (luciferase)” value (AEG-1 promoter [3]; 20 and 50 μM) was “dose dependent inhibition” and the “AEG-1 promoter activity (luciferase)” value (AEG-1 promoter [4]; 20 and 50 μM) was “dose dependent inhibition”.
For C[S+]([O-])c1ccc(-c2nc(-c3ccncc3)c(-c3ccc(F)cc3)[nH]2)cc1 (centres unmarked) [SB 203580], the “AEG-1 promoter activity (luciferase)” value (AEG-1 promoter [3]; 5 μM) was “inhibition of promoter activity was observed” and the “AEG-1 promoter activity (luciferase)” value (AEG-1 promoter [4]; 5 μM) was “inhibition of promoter activity was observed”.
In the case of TNFα, the “decrease of EAAT2 promoter activity” value (EAAT2 promoter) is listed as about 2.5 fold and the “AEG-1 expression over control” value (AEG-1 [5]) is listed as 3 fold.
With “Tat gene product: HIV-Tat gene product expressed from a co-transfected plasmid expression vector” the “stimulation of AEG-1 promoter activity” value (AEG-1 promoter [6]) was 1.5 fold.
For “gp120: HIV-1 gp120 envelope protein used to treat astrocytes”, the “decrease of EAAT2 promoter activity” value (EAAT2 promoter) is given as about 2.5 fold, the “AEG-1 expression over control” value (AEG-1 [5]) is given as 3 fold and the “reduction in glutamate uptake” value [7] is given as about 60%.
In the case of “siRNA for AEG-1: siRNA with sequence 5′ AGCAGCCACCAGAGATTGA 3′ (SEQ ID NO:3), corresponds to nucleotides 449-467 of the AEG-1 ORF (listed as DNA, chemistry not given here)”, the agar cloning efficiency (U251-MG cells [8]) is reported as “significantly inhibited”, the agar cloning efficiency (U87-MG cells [9]) is reported as “significantly inhibited” and the “AEG-1 protein knock down (Western blot)” value (AEG-1 [10]) is reported as “efficient protein knock down”. The Matrigel invasion (U251-MG cells [11]) was “significantly inhibited” and the Matrigel invasion (U87-MG cells [12]) was “significantly inhibited”.
